From patent publication US12673961B2 (Agios Pharmaceuticals, Inc., priority 2022, dated 2026) come the findings set out here.

This assay has as its target T1, human PAH with the R408W mutation (Homo sapiens, UniProt P00439, R408W).
T1 construct: expressed in transfected cells
T1 sequence (P00439 1-452 R408W): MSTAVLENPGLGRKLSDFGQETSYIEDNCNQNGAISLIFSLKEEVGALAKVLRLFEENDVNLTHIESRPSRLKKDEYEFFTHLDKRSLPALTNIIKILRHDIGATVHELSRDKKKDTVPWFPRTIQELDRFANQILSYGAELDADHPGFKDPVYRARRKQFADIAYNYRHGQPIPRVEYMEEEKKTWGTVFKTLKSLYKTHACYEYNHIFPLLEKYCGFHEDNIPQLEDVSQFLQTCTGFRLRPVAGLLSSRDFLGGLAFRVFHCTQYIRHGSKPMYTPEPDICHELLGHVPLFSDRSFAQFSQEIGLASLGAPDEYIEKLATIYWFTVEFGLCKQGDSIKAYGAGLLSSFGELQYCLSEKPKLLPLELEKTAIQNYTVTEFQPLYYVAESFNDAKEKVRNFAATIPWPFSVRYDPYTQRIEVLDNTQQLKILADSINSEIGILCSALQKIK
Briefly: Cell Based Phenylalanine Flux Assay.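 Note: Ten-point dose curve from 2-fold serial dilutions, run in duplicate at 0.5% DMSO final, tracer step used 20 µM sepiapterin and 800 µM labeled phenylalanine.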 Particulars: A375 cells expressing human R408W PAH; 24 hrs with compound, then sepiapterin and 13C9,15N-Phenylalanine for 4 hours; 13C-Tyrosine by LC-MS; average where tested multiple times; read-out: AC50.
The AC50 is the midpoint of the concentration-response curve, whichever way the signal moves. In the case of `Cn1cc(-c2ccc3c(C(=O)N4CCc5[nH]cnc5[C@H]4c4cc5c(C(F)(F)F)cccn5n4)cnn3c2)cn1` [Example 1552, (S)-(6-(1-methyl-1H-pyrazol-4-yl)pyrazolo[1,5-a]pyridin-3-yl)(4-(4-(trifluoromethyl)pyrazolo[1,5-a]pyridin-2-yl)-6,7-dihydro-1H-imidazo[4,5-c]pyridin-5(4H)-yl)methanone], the AC50 is below 500 nM. For `CC(C)c1nnc(C(=O)N2CCc3[nH]cnc3[C@@H]2c2cc3cccc(F)n3n2)o1` [Example 1554], the AC50 was above 5000 nM. With `O=C(c1nnc(C2CCC2)o1)N1CCc2[nH]cnc2[C@@H]1c1cc2c(F)cccn2n1` [Example 1558, (R)-(5-cyclobutyl-1,3,4-oxadiazol-2-yl)(4-(4-fluoropyrazolo[1,5-a]pyridin-2-yl)-6,7-dihydro-1H-imidazo[4,5-c]pyridin-5(4H)-yl)methanone], the AC50 was in the range of 1000 to 5000 nM. The same measure for `Cc1cc(-c2nnc(C(=O)N3CCc4[nH]cnc4[C@H]3c3cc4cccc(F)n4n3)o2)nn1C` [Example 1565, (S)-(5-(1,5-dimethyl-1H-pyrazol-3-yl)-1,3,4-oxadiazol-2-yl)(4-(7-fluoropyrazolo[1,5-a]pyridin-2-yl)-6,7-dihydro-1H-imidazo[4,5-c]pyridin-5(4H)-yl)methanone]: below 500 nM; for `Cc1cnn(C)c1-c1nnc(C(=O)N2CCc3[nH]cnc3[C@H]2c2cc3c(C(F)F)cccn3n2)o1` [Example 1568, (S)-(4-(4-(difluoromethyl)pyrazolo[1,5-a]pyridin-2-yl)-6,7-dihydro-1H-imidazo [4,5-c]pyridin-5(4H)-yl)(5-(1,4-dimethyl-1H-pyrazol-5-yl)-1,3,4-oxadiazol-2-yl)methanone]: below 500 nM. As for `c1ccc2oc(N3CCc4[nH]cnc4[C@H]3c3cc4ccccn4n3)nc2c1` [Example 1577, (S)-2-(4-(pyrazolo[1,5-a]pyridin-2-yl)-6,7-dihydro-1H-imidazo[4,5-c]pyridin-5(4H)-yl)benzo[d]oxazole], the AC50 was in the range of 500 to 1000 nM. The same measure for `O=C(c1nnc(C2CC(F)(F)C2)o1)N1CCc2[nH]cnc2[C@@H]1c1cc2c(Cl)cccn2n1` [Example 1586, (R)-(4-(4-chloropyrazolo [1,5-a]pyridin-2-yl)-6,7-dihydro-1H-imidazo [4,5-c]pyridin-5(4H)-yl)(5-(3,3-difluorocyclobutyl)-1,3,4-oxadiazol-2-yl)methanone]: 1000 to 5000 nM; for `O=C(c1nnc(C2CC(F)(F)C2)o1)N1CCc2[nH]cnc2[C@H]1c1cc2c(Cl)cccn2n1` [Example 1587, (S)-(4-(4-chloropyrazolo [1,5-a]pyridin-2-yl)-6,7-dihydro-1H-imidazo[4,5-c]pyridin-5(4H)-yl)(5-(3,3-difluorocyclobutyl)-1,3,4-oxadiazol-2-yl)methanone]: below 500 nM; for `FC(F)(F)c1cccn2nc([C@@H]3c4nc[nH]c4CCN3c3nnc(C4CC4)o3)cc12` [Example 1591, (S)-2-cyclopropyl-5-(4-(4-(trifluoromethyl)pyrazolo[1,5-a]pyridin-2-yl)-6,7-dihydro-1H-imidazo[4,5-c]pyridin-5(4H)-yl)-1,3,4-oxadiazole]: 500 to 1000 nM. The same measure for `c1cnc(N2CCc3[nH]cnc3[C@H]2c2cc3ccccn3n2)nc1` [Example 1592, (S)-4-(pyrazolo[1,5-a]pyridin-2-yl)-5-(pyrimidin-2-yl)-4,5,6,7-tetrahydro-1H-imidazo[4,5-c]pyridine]: 500 to 1000 nM; for `Clc1cccn2nc([C@H]3c4nc[nH]c4CCN3c3nnc(-c4ccccn4)o3)cc12` [Example 1622, (R)-2-(4-(4-chloropyrazolo [1,5-a]pyridin-2-yl)-6,7-dihydro-1H-imidazo[4,5-c]pyridin-5(4H)-yl)-5-(pyridin-2-yl)-1,3,4-oxadiazole]: 1000 to 5000 nM; for `FC(F)c1cccc2cc([C@H]3c4nc[nH]c4CCN3c3nnc(-c4ccccn4)o3)nn12` [Example 1627, (R)-2-(4-(7-(difluoromethyl)pyrazolo[1,5-a]pyridin-2-yl)-6,7-dihydro-1H-imidazo [4,5-c]pyridin-5(4H)-yl)-5-(pyridin-2-yl)-1,3,4-oxadiazole]: above 5000 nM.

As for `COCc1ccc2c(C(=O)N3CCc4[nH]cnc4[C@H]3c3cc4c(F)cccn4n3)cnn2c1` [Example 1628, (4-(4-fluoropyrazolo[1,5-a]pyridin-2-yl)-6,7-dihydro-1H-imidazo[4,5-c]pyridin-5(4H)-yl)(6-(methoxymethyl)pyrazolo[1,5-a]pyridin-3-yl)methanone], the AC50 lay within 500 to 1000 nM. For `Clc1cccc2cc([C@@H]3c4nc[nH]c4CCN3c3nnc(-c4ccccn4)o3)nn12` [Example 1639, (S)-2-(4-(7-chloropyrazolo [1,5-a]pyridin-2-yl)-6,7-dihydro-1H-imidazo[4,5-c]pyridin-5(4H)-yl)-5-(pyridin-2-yl)-1,3,4-oxadiazole], the AC50 is 500 to 1000 nM. The same measure for `Cc1cccc2cc([C@H]3c4nc[nH]c4CCN3c3nnc(-c4ccccn4)o3)nn12` [Example 1641, (R)-2-(4-(7-methylpyrazolo [1,5-a]pyridin-2-yl)-6,7-dihydro-1H-imidazo[4,5-c]pyridin-5(4H)-yl)-5-(pyridin-2-yl)-1,3,4-oxadiazole]: above 5000 nM; for `COCc1ccc2c(C(=O)N3CCc4[nH]cnc4[C@H]3c3cc4c(Cl)cccn4n3)cnn2c1` [Example 1650, (S)-(4-(4-chloropyrazolo [1,5-a]pyridin-2-yl)-6,7-dihydro-1H-imidazo [4,5-c]pyridin-5(4H)-yl)(6-(methoxymethyl)pyrazolo [1,5-a]pyridin-3-yl)methanone]: 500 to 1000 nM. The same measure for `Cc1ccc2c(C(=O)N3CCc4[nH]cnc4[C@H]3c3cc4c(C(F)(F)F)cccn4n3)cnn2c1` [Example 1666, (S)-(6-methylpyrazolo [1,5-a]pyridin-3-yl)(4-(4-(trifluoromethyl)pyrazolo [1,5-a]pyridin-2-yl)-6,7-dihydro-1H-imidazo[4,5-c]pyridin-5(4H)-yl)methanone]: 500 to 1000 nM; for `Cc1ccc2c(C(=O)N3CCc4[nH]cnc4[C@H]3c3cc4c(C)cccn4n3)cnn2c1` [Example 1668, (S)-(4-(4-methylpyrazolo [1,5-a]pyridin-2-yl)-6,7-dihydro-1H-imidazo [4,5-c]pyridin-5(4H)-yl)(6-methylpyrazolo[1,5-a]pyridin-3-yl)methanone]: 500 to 1000 nM; for `O=C(c1cnn2cc(C3CC3)ccc12)N1CCc2[nH]cnc2[C@@H]1c1cc2c(F)cccn2n1` [Example 1673, (R)-(6-cyclopropylpyrazolo [1,5-a]pyridin-3-yl)(4-(4-fluoropyrazolo[1,5-a]pyridin-2-yl)-6,7-dihydro-1H-imidazo[4,5-c]pyridin-5(4H)-yl)methanone]: above 5000 nM.

Turning to `Cc1c(-c2nnc(C(=O)N3CCc4[nH]cnc4[C@H]3c3cc4c(OC(F)(F)F)cccn4n3)o2)cnn1C` [Example 1684, (S)-(5-(1,5-dimethyl-1H-pyrazol-4-yl)-1,3,4-oxadiazol-2-yl)-(4-(4-(trifluoromethoxy)pyrazolo[1,5-a]pyridin-2-yl)-6,7-dihydro-1H-imidazo [4,5-c]pyridin-5(4H)-yl)methanone], the AC50 was below 500 nM. As to `FC(F)(F)c1cccn2nc([C@H]3c4nc[nH]c4CCN3c3ncccn3)cc12` [Example 1693, (R)-5-(pyrimidin-2-yl)-4-(4-(trifluoromethyl)pyrazolo [1,5-a]pyridin-2-yl)-4,5,6,7-tetrahydro-1H-imidazo [4,5-c]pyridine], the AC50 fell in the range of 1000 to 5000 nM. `Cc1ccc2c(C(=O)N3CCc4[nH]cnc4[C@H]3c3cc4c(C(F)F)cccn4n3)cnn2c1` [Example 1712, (S)-(4-(4-(difluoromethyl)pyrazolo[1,5-a]pyridin-2-yl)-6,7-dihydro-1H-imidazo [4,5-c]pyridin-5(4H)-yl)(6-methylpyrazolo[1,5-a]pyridin-3-yl)methanone]: the AC50 was 500 to 1000 nM. On to `O=C(c1cnn2cc(C3CC3)ccc12)N1CCc2[nH]cnc2[C@@H]1c1cc2c(C(F)(F)F)cccn2n1` [Example 1717, (R)-(6-cyclopropylpyrazolo [1,5-a]pyridin-3-yl)(4-(4-(trifluoromethyl)pyrazolo [1,5-a]pyridin-2-yl)-6,7-dihydro-1H-imidazo[4,5-c]pyridin-5(4H)-yl)methanone], for which the AC50 was above 5000 nM. As to `O=C(c1nnc(C2CC2)o1)N1CCc2[nH]cnc2[C@H]1c1cc2c(OC(F)(F)F)cccn2n1` [Example 1724, (S)-(5-cyclopropyl-1,3,4-oxadiazol-2-yl)(4-(4-(trifluoromethoxy)pyrazolo [1,5-a]pyridin-2-yl)-6,7-dihydro-1H-imidazo[4,5-c]pyridin-5(4H)-yl)methanone], the AC50 is below 500 nM. Consider `CN(C)c1ccc2c(C(=O)N3CCc4[nH]cnc4[C@H]3c3cc4c(C(F)(F)F)cccn4n3)cnn2c1` [Example 1746, (S)-(6-(dimethylamino)pyrazolo[1,5-a]pyridin-3-yl)(4-(4-(trifluoromethyl)pyrazolo [1,5-a]pyridin-2-yl)-6,7-dihydro-1H-imidazo[4,5-c]pyridin-5(4H)-yl)methanone], for which the AC50 was below 500 nM. `COc1cccn2nc([C@@H]3c4nc[nH]c4CCN3C(=O)c3cnn4cc(-c5ccn(C)n5)ccc34)cc12` [Example 1748, (S)-(4-(4-methoxypyrazolo [1,5-a]pyridin-2-yl)-6,7-dihydro-1H-imidazo[4,5-c]pyridin-5(4H)-yl)(6-(1-methyl-1H-pyrazol-3-yl)pyrazolo[1,5-a]pyridin-3-yl)methanone]: the AC50 was 500 to 1000 nM.
